# Source: ChEMBL document CHEMBL4371025, “Discovery and evaluation of novel FAAH inhibitors in neuropathic pain model” (Bioorg Med Chem Lett, 2019)
# What was measured:
# [1] = system: CYP3A4; assay: Selectivity ratio of IC50 for CYP3A4 in human liver microsomes using testosterone as substrate to IC50 for human transmembrane domain deficient FFAH expressed in Escherichia coli; format: toxicity; conditions: probe testosterone, read-out: Ratio IC50
# [2] = system: CYP2C19; assay: Selectivity ratio of IC50 for CYP2C19 in human liver microsomes to IC50 for human transmembrane domain deficient FFAH expressed in Escherichia coli; format: toxicity; conditions: read-out: Ratio IC50
# [3] = system: CYP3A4; assay: Selectivity ratio of IC50 for CYP3A4 in human liver microsomes using testosterone as substrate to IC50 for rat FFAH expressed in Escherichia coli; format: toxicity; conditions: probe testosterone, read-out: Ratio IC50
# [4] = system: CYP2C19; assay: Selectivity ratio of IC50 for CYP2C19 in human liver microsomes to IC50 for rat FFAH expressed in Escherichia coli; format: toxicity; conditions: read-out: Ratio IC50
# [5] = system: CYP2D6; assay: Selectivity ratio of IC50 for CYP2D6 in human liver microsomes to IC50 for rat FFAH expressed in Escherichia coli; format: toxicity; conditions: read-out: Ratio IC50
# [6] = Selectivity ratio of IC50 for MAGL (unknown origin) to IC50 for human transmembrane domain deficient FFAH expressed in Escherichia coli; format: toxicity
# [7] = system: CYP3A4; assay: Selectivity ratio of IC50 for CYP3A4 in human liver microsomes using midazolam as substrate to IC50 for rat FFAH expressed in Escherichia coli; format: toxicity; conditions: probe midazolam, read-out: Ratio IC50
# [8] = Selectivity ratio of IC50 for MAGL (unknown origin) to IC50 for rat FFAH expressed in Escherichia coli; format: toxicity
# [9] = system: CYP2C9; assay: Selectivity ratio of IC50 for CYP2C9 in human liver microsomes to IC50 for rat FFAH expressed in Escherichia coli; format: toxicity; conditions: read-out: Ratio IC50
# [10] = Drug uptake in Sprague-Dawley rat brain at 3 mg/kg, iv or 10 mg/kg, po administered as single dose via gavage by LC-MS/MS analysis; format: ADME, organism-based; conditions: in vivo
# [11] = Drug level in plasma of Sprague-Dawley rat at 10 mg/kg, po administered as single dose via gavage measured at 12 hrs by LC-MS/MS analysis; format: ADME, organism-based
# [12] = Drug level in liver of Sprague-Dawley rat at 10 mg/kg, po administered as single dose via gavage measured at 12 hrs by LC-MS/MS analysis; format: ADME, organism-based; conditions: read-out: Drug uptake
# [13] = Drug level in brain of Sprague-Dawley rat at 10 mg/kg, po administered as single dose via gavage measured at 12 hrs by LC-MS/MS analysis; format: ADME, organism-based; conditions: read-out: Drug uptake
concentration at 12 h [11],concentration at 12 h [12],concentration at 12 h [13],SMILES,selectivity ratio [1],selectivity ratio [2],selectivity ratio [3],selectivity ratio [4],selectivity ratio [5],Ratio IC50 [6],selectivity ratio [7],Ratio IC50 [8],selectivity ratio [9],Drug uptake [10]
–,–,–,Nc1ncc(C(=O)N[C@H]2CC/C(=C\c3cccc(Oc4ccc(C(F)(F)F)cn4)c3)CC2)cn1 (stereo not drawn),> 5000,> 5000,> 5000,> 5000,> 5000,> 10000,> 5000,> 10000,> 5000,50 to 80%
1.9 µM,21 µM,3.6 µM,O=C(N[C@H]1CC/C(=C\c2cccc(Oc3ccc(C(F)(F)F)cn3)c2)CC1)c1cccnc1 (stereo not drawn),–,–,–,–,–,–,–,–,–,–
–,–,–,Cc1cc(C(=O)N[C@H]2CC/C(=C\c3cccc(Oc4ccc(C(F)(F)F)cn4)c3)CC2)cnc1N (stereo not drawn),> 5000,> 5000,> 5000,> 5000,> 5000,> 10000,> 5000,> 10000,> 5000,50 to 80%
